For assay [1], the system named is mouse uterus. Nature of the assay: Uterotrophic test on infantile mouse (estrogen activity). It counts as in vivo. On the set-up: unit not given here. The source says: (§1) This test is fully described in Cancer Treatment Reviews 1984, 11, 147, and J.Med.Chem., 1984, 27, 1439.
The test system of assay [2] is human MCF-7 breast cancer cells. Briefly: growth of hormone-dependent human MCF-7 breast cancer cells, cell count. Conditions: for activity at 0.1 µM / activity at 0.5 µM / activity at 1 µM / activity at 5 µM / activity at 10 µM: Homo sapiens, read-out: Cell Count (% T/C); for activity at 10 µM: MCF-7, 1 × 10^-5 M. It counts as cell-based. The source says:
(§2) The test protocol for the research is fully described in Eur.J. Cancer Clin. Oncol.

Assay [3] deals with mouse uterus. Briefly: Antiuterotrophic test on infantile mouse (anti-estrogen activity). It counts as in vivo. Details: Antiuterotrophic Test Rel. uterus wgt / Antiuterotrophic Test Action (rel. uterus wgt): unit not given here. Conditions: for inhibition in vivo at 0.025 mg: dose 25 ug (per animal); for inhibition in vivo at 0.005 mg: dose 5 ug (per animal).
From the text: as §1

The subject of assay [4] is human MCF-7 breast cancer cells. Nature of the assay: [3H] thymidine incorporation in hormone-dependent human MCF-7 breast cancer cells. Conditions: for activity at 0.1 µM / activity at 0.5 µM / activity at 1 µM / activity at 5 µM: Homo sapiens, read-out: [3H] Thymidine incorporation (% T/C). It counts as cell-based.
From the text: as §2

Assay [5] has as its target T1, estrogen receptor (Bos taurus, UniProt P49884).
T1 construct: estrogen receptor from calf uterus; from tissue; host or cells: calf uterus
T1 sequence (P49884 1-596): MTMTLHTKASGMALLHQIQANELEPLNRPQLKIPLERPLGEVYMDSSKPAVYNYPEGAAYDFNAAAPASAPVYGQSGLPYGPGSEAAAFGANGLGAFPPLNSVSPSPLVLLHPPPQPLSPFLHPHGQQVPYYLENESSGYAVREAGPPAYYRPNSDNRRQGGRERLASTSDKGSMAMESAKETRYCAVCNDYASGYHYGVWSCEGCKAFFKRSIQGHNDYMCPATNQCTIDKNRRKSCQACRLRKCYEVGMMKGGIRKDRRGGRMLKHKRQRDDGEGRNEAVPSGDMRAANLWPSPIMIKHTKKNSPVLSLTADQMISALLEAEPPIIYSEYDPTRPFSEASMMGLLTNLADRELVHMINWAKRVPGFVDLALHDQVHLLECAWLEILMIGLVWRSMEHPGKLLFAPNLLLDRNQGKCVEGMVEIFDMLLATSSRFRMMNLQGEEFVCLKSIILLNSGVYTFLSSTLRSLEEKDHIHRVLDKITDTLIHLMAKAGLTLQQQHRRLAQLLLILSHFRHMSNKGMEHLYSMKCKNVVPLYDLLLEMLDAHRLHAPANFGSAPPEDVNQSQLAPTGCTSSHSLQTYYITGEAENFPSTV
Nature of the assay: relative binding affinity (RBA) for the estrogen receptor from calf uterus, displacement of 3H-17β estradiol. The note with it: calf uterus; relative to 17 beta estradiol = 100. For orientation: Displacement assays read how much labelled ligand stays bound in the presence of the test substance.
From the text: *Relative binding affinities for the estrogen receptor from calf uterus,

Where [6] appears, read: Mus musculus, read-out: Antiuterotrophic Test Inhib. (%).
[7] abbreviates: infantile mouse, read-out: Antiuterotrophic Test Inhib. (%).
[8] abbreviates: infantile mouse, dose 5 ug/animal.
[9] abbreviates: infantile mouse, dose 25 ug/animal.
Setting [10] is: infantile mouse, dose 625 ug/animal.
The mark [11] stands for this setting: infantile mouse, dose 625 ug/animal, read-out: Antiuterotrophic Test Inhib. (%).
[12] abbreviates: 10^-7 M, six days after incubation.

Read-outs that look alike come from different tables or passages of the source.

As for `Cc1c(-c2ccc(O)cc2)n(CCCCCCN2CCCC2)c2ccc(O)cc12` [Compound 6, 5-Hydroxy-2-(4-hydroxyphenyl)-3-methyl-1-[6-pyrrolidino-hexyl]-indole], the “Uterotrophic Test Rel. uterus wgt” value is given as 9.0 ± 1.8 in assay [1] (dose 5 ug), 8.2 ± 1.8 in assay [1] (dose 50 ug) and 12.7 ± 2.7 in assay [1] (dose 250 ug). For the same molecule, the activity at 0.1 µM in assay [2] (MCF7, […]) turned out to be 65%; in assay [4] (MCF7, […]) it was 32%. In addition, the activity at 0.5 µM in assay [2] (MCF7, […]) was determined as 49%; in assay [4] (MCF7, […]), 32%. The activity at 1 µM is 24% in assay [2] (MCF7, […]) and 22% in assay [4] (MCF7, […]). Also, the activity at 5 µM in assay [2] (MCF7, […]) came out at 12%; in assay [4] (MCF7, […]), 3%. Also, the inhibition in vivo at 0.001 mg in assay [3] (Mus musculus, read-out: Antiuterotrophic Test Inhib. (%), infantile mouse, dose 1 ug) was 20%. The “Antiuterotrophic Test Rel. uterus wgt” value in assay [3] (infantile mouse, dose 1 ug) is recorded as 48.3 ± 7.2; in assay [3] (infantile mouse, dose 5 ug) it was 20.1 ± 7.3; in assay [3] (infantile mouse, dose 25 ug), 12.6 ± 1.9; in assay [3] (infantile mouse, dose 125 ug), 8.9 ± 1.6.

`Cc1c(-c2ccc(O)cc2)n(CCCCN2CCCC2)c2ccc(O)cc12` [Compound 1, 5-Hydroxy-2-(4-hydroxyphenyl)-3-methyl-1-[4-pyrrolidino-butyl]-indole]: the “Uterotrophic Test Rel. uterus wgt” value was 7.6 ± 2.8 in assay [1] (dose 1 ug), 8.0 ± 3.1 in assay [1] (dose 5 ug), 6.4 ± 1.1 in assay [1] (dose 25 ug) and 6.4 ± 1.3 in assay [1] (dose 125 ug). Besides, the activity at 1 µM in assay [2] (MCF7, MCF-7, 1 × 10^-6 M) was 94%; in assay [4] (MCF7, MCF-7, 1 × 10^-6 M) it was 85%. The activity at 0.1 µM is 106% in assay [2] (MCF7, MCF-7, 1 × 10^-7 M) and 67% in assay [4] (MCF7, MCF-7, 1 × 10^-7 M). Besides, the activity at 5 µM in assay [2] (MCF7, MCF-7, 5 × 10^-6 M) was 62%; in assay [4] (MCF7, MCF-7, 5 × 10^-6 M), 74%. The activity at 0.5 µM in assay [2] (MCF7, MCF-7, 5 × 10^-7 M) was 84%; in assay [4] (MCF7, MCF-7, 5 × 10^-7 M), 76%. Also, the inhibition in vivo at 0.125 mg in assay [3] (setting [6]) is 53%. Moreover, the “Antiuterotrophic Test Rel. uterus wgt” value in assay [3] (infantile mouse, dose 1 ug) came to 43.7 ± 8.2; in assay [3] (infantile mouse, dose 5 ug), 47.6 ± 10.5; in assay [3] (infantile mouse, dose 25 ug), 16.2 ± 4.6; in assay [3] (infantile mouse, dose 125 ug), 25.5 ± 7.9. Besides, in assay [3] (infantile mouse, dose 1 ug, read-out: Antiuterotrophic Test Inhib. (%)), the inhibition in vivo at 0.001 mg came out at 5%. The inhibition in vivo at 0.025 mg in assay [3] (setting [7]) was found to be 78%. Besides, the “RBA (relative binding affinity for the estrogen receptor)” value in assay [5] worked out at 3.6.

Take `CCN(CC)C(=O)CCCCCn1c(-c2ccc(O)cc2)c(C)c2cc(O)ccc21` [Compound 19, 1-(6-Diethylcarbamoylpentyl)-5-hydroxy-2-(4-hydroxyphenyl)-3-methylindole]: the “Uterotrophic Test Action (rel. uterus wgt)” value is given as 18.4 ± 3.2 in assay [1] (dose 5 ug/animal), 17.9 ± 2.0 in assay [1] (dose 25 ug/animal) and 32.7 ± 6.5 in assay [1] (dose 625 ug/animal). Also, the activity at 10 µM in assay [2] (MCF7) is 44.9 ± 3.7%. Besides, the activity at 1 µM in assay [2] (MCF7, MCF-7, 1 × 10^-6 M) came out at 61.4 ± 4.4%. For the same molecule, the activity at 0.1 µM in assay [2] (MCF7, MCF-7, 1 × 10^-7 M) was 59.7 ± 6.1%. Besides, in assay [2] (MCF7, MCF-7, 5 × 10^-6 M), the activity at 5 µM was 56.2 ± 4.5%. Also, the activity at 0.5 µM in assay [2] (MCF7, MCF-7, 5 × 10^-7 M) came to 60.1 ± 3.8%. Moreover, the inhibition in vivo at 0.125 mg in assay [3] (setting [6]) amounted to 34%. Moreover, the inhibition in vivo at 0.005 mg in assay [3] (setting [7]) amounted to 13%. Also, the “Antiuterotrophic Test Action (rel. uterus wgt)” value (“Antiuterotrophic Test Action” for short) in assay [3] (setting [8]) is listed as 50.9 ± 8.2; in assay [3] (setting [9]) it was 50.9 ± 4.8; in assay [3] (setting [10]) it was 35.3 ± 6.1. In addition, the inhibition in vivo at 0.025 mg in assay [3] (setting [7]) was 13%. In assay [3] (setting [11]), the inhibition in vivo at 0.625 mg was determined as 66%. Also, the “RBA (relative binding affinity for the estrogen receptor)” value in assay [5] is 15.

Consider `Cc1c(-c2ccc(O)cc2)n(CCCCCC(=O)N2CCCC2)c2ccc(O)cc12` [Compound 16, 5-Hydroxy-2-(4-hydroxyphenyl)-3-methyl-1-(6-pyrrolidinocarbonylpentyl)-indole], for which the “Uterotrophic Test Action (rel. uterus wgt)” value in assay [1] (dose 5 ug/animal) is 18.2 ± 2.3; in assay [1] (dose 25 ug/animal), 16.5 ± 2.4; in assay [1] (dose 625 ug/animal) it was 35.3 ± 10.7. For the same molecule, the activity at 10 µM in assay [2] (MCF7) is 42.1 ± 4%. Further, in assay [2] (MCF7, MCF-7, 1 × 10^-6 M), the activity at 1 µM was 47.1 ± 3.7%. Moreover, the activity at 0.1 µM in assay [2] (MCF7, MCF-7, 1 × 10^-7 M) was 57.2 ± 4.4%. Further, the activity at 5 µM in assay [2] (MCF7, MCF-7, 5 × 10^-6 M) amounted to 44 ± 3.6%. In addition, the activity at 0.5 µM in assay [2] (MCF7, MCF-7, 5 × 10^-7 M) was 48.2 ± 5.4%. Also, the inhibition in vivo at 0.125 mg in assay [3] (setting [6]) worked out at 53%. The inhibition in vivo at 0.005 mg in assay [3] (setting [7]) is 10%. The “Antiuterotrophic Test Action” value in assay [3] (setting [8]) is 47.5 ± 10.9; in assay [3] (setting [9]), 42.0 ± 7.0; in assay [3] (setting [10]), 40.7 ± 3.9. In assay [3] (setting [7]), the inhibition in vivo at 0.025 mg came out at 29%. In addition, the inhibition in vivo at 0.625 mg in assay [3] (setting [11]) turned out to be 44%. Also, in assay [5], the “RBA (relative binding affinity for the estrogen receptor)” value was 7.

On to `Cc1c(-c2ccc(O)cc2)n(CCCCCCNCc2ccccc2)c2ccc(O)cc12` [Compound 12, 1-(6-Benzylaminohexyl)-5-hydroxy-2-(4-hydroxyphenyl)-3-methyl-indole], for which the “Uterotrophic Test Action (rel. uterus wgt)” value in assay [1] (dose 5 ug/animal) is listed as 17.8 ± 4.6; in assay [1] (dose 25 ug/animal) it was 23.6 ± 2.5. Besides, the activity at 10 µM in assay [2] (MCF7) amounted to 41%. The activity at 1 µM in assay [2] (MCF7, MCF-7, 1 × 10^-6 M) is 46%. For the same molecule, the activity at 0.1 µM in assay [2] (MCF7, MCF-7, 1 × 10^-7 M) worked out at 47%. In assay [3] (setting [6]), the inhibition in vivo at 0.125 mg worked out at 51%. In assay [3] (setting [7]), the inhibition in vivo at 0.005 mg was 25%. Moreover, the “Antiuterotrophic Test Action” value in assay [3] (setting [8]) was found to be 53.2 ± 9.0; in assay [3] (setting [9]) it was 44.6 ± 7.1; in assay [3] (setting [10]), 41.8 ± 7.4. The inhibition in vivo at 0.025 mg in assay [3] (setting [7]) was 43%. Besides, in assay [3] (setting [11]), the inhibition in vivo at 0.625 mg was 49%. In addition, in assay [5], the “RBA (relative binding affinity for the estrogen receptor)” value is reported as 15.

For `CC/C(=C(\c1ccccc1)c1ccc(OCCN(C)C)cc1)c1ccccc1` [Tamoxifen, reference compound], the “inhibition of MCF-7 cell growth / cell count (in words)” value in assay [2] (setting [12]) is “no significant effect”. Moreover, the activity at 1 µM in assay [2] (MCF7, MCF-7, 1 × 10^-6 M) came out at 27%; in assay [4] (MCF7, MCF-7, 1 × 10^-6 M) it was 27%. In addition, the activity at 0.1 µM in assay [2] (MCF7, MCF-7, 1 × 10^-7 M) is 77%; in assay [4] (MCF7, MCF-7, 1 × 10^-7 M) it was 71%. Besides, the “thymidine incorporation (in words)” value in assay [4] (setting [12]) was “no significant effect”.

The values above are taken from patent publication US5023254A, “Aminoalkylindoles, their production, and pharmaceutical preparations based thereon” (Schering Aktiengesellschaft, priority 1988, dated 1991).
